# Data published in patent US4598065A, “Use of peptides as medicaments and certain novel peptides” (Novo Industri A/S, priority 1980, dated 1986).
# Experiments:
# NMRI mice = assay: Acute toxicity study in NMRI mice; assay type: in vivo; details: 10 mg i.v. bolus, NMRI mice 20 g (500 mg/kg body weight)
# rats = assay: Metabolic effects (hyperglycemia, insulin release) after administration to rats in vivo; set-up: species or system rat
# adenylate cyclase = details: in vitro
# From the text: The metabolic effects of glucagon1-21, glucagon1-26 and des(22-26)-glucagon, as exemplified by their lipolytic effect on rat free fat cells in vitro and their effect on the activation of the adenylate cyclase in vitro, are negligible compared with the metabolic effects of glucagon.
# [1] = tested on: electrically stimulated guinea pig ileum; assay: Contractions of the electrically stimulated guinea pig ileum in vitro; assay type: cell-based
# From the text: 10^-5 M glucagon caused 83±4% (X±sd, N=3) ihibition compared to 78±5% for glucagon1-21. The effects of 10^-6 M was 50±3% and 52±5%, respectively, and of 10^-7 M: 27±3% for either peptide.
# rat free fat cells = assay: Lipolytic effect on rat free fat cells in vitro; assay type: cell-based
# gall flow in rats = assay: Gall flow in rats in vivo; set-up: species or system rat
# [2] = tested on: isolated perfused rat pancreas; assay: Insulin release from the isolated perfused rat pancreas; assay type: cell-based; details: infused to the same concentration as glucagon
# bile flow in rabbits = assay: Bile flow in rabbits with catheters in the bile duct; assay type: in vivo, rabbit; details: for Amount of bile: 200 μg s.c. given after 45 minutes
# Method: One rex rabbit weighing 2.0 kg was equipped with a catheter in the bile duct during nembutal anaesthesia on the day before the experiment. On the day of the experiment the bile was collected for periods of 15 minutes.
# After 45 minutes 200 μg glucagon was administered subcutaneously in 1 ml of 0.9% saline containing 0.1% human serum albumin. After 120 minutes 154 μg glucagon1-21 was administered subcutaneously in 1 ml of the above solution. After 195 minutes the placebo (vide Experiment C) was administered.
# [3] = tested on: intestinal motility in rabbits; assay: Intestinal motility in anaesthetized rabbits in vivo (spasmolytic effect, balloon in jejunum); set-up: species or system rabbit; details: for spasmolytic effect: Experiment B, rabbit 2.32 kg
# Method: One male rabbit weighing 2.56 kg was anaesthetized with nembutal after an overnight fast. The position of the balloon used for measurement of intestinal motility was 1 meter from pylorus in the jejunum. The motility was registered before and after intraveneous administration of 77 μg glucagon1-21 in 1 ml 0.9% saline containing 0.1% human serum albumin. […] The onset of effect was 1 minute after the administration and the duration of effect was 11 minutes.
# A male rabbit weighing 2.32 kg was treated as described in Experiment A with the following dosages: […]
# [4] = tested on: rabbit gall bladder preparation; assay: Relaxation of submaximally contracted rabbit gall bladder preparation in vitro; assay type: cell-based
# [5] = tested on: pentagastrin stimulated gastric acid secretion in gastric fistula cats; assay: Pentagastrin stimulated gastric acid secretion in cats with chronic gastric fistulas; assay type: in vivo, cat
# Method: 1 μg/kg pentagastrin subcutaneously administered to gastric fistula cats caused an increase in gastic acid secretion of 856±71 μEq (Eq designates equivalent) acid (X±S.E.M., N=18). When 2 μg/kg glucagon1-21 was administered subcutaneously at the same time as 1 μg/kg pentagastrin the increase in acid output was only 417±104 μEq acid (N=6).
# In a male cat weighing approx. 4.5 kg equipped with a cronic gastric fistula the gastric acid secretion was stimulated with 4.5 μg pentagastrin (Peptavlon®) in a volume of 1 ml 0.9% saline containing 0.1% human serum albumin subcutaneously in the neck. In 8 experiments 1 ml placebo (0.9% saline with 0.1% human serum albumin) was administered subcutaneously through another cannula in the neck at the same time as the administration of pentagastrin. In 2 experiments 9 μg of glucagon1-21 in 1 ml of the above solution was administered simultaneously with the administration of pentagastrin. Gastric acid secretion was collected over periods of 15 minutes and titrated with 0.01N NaOH. The increase in acid secretion after the administration of pentagastrin was calculated as μEq acid excreted over 11/2 hrs. after the administration subtracting the basal acid secretion before administration of pentagastrin. After administration of 4.5 μg pentagastrin plus placebo the increase in gastric acid secretion was 729± 89 μEq acid (X±S.E.M., N=8). […]
# [6] = i.v. bolus, 100 to 200 μg glucagon or 77 to 154 μg glucagon1-21, anesthetized rabbits 2.5 to 3.0 kg
compound,measurement,setting,value
"CC(C)C[C@H](NC(=O)[C@H](Cc1ccc(O)cc1)NC(=O)[C@H](CCCCN)NC(=O)[C@H](CO)NC(=O)[C@H](Cc1ccc(O)cc1)NC(=O)[C@H](CC(=O)O)NC(=O)[C@H](CO)NC(=O)[C@@H](NC(=O)[C@H](Cc1ccccc1)NC(=O)[C@@H](NC(=O)CNC(=O)[C@H](CCC(N)=O)NC(=O)[C@H](CO)NC(=O)[C@@H](N)Cc1c[nH]cn1)[C@@H](C)O)[C@@H](C)O)C(=O)N[C@@H](CC(=O)O)C(=O)N[C@@H](CO)C(=O)N[C@@H](CCCNC(=N)N)C(=O)N[C@@H](CCCNC(=N)N)C(=O)N[C@@H](C)C(=O)N[C@@H](CCC(N)=O)C(=O)N[C@@H](CC(=O)O)C(=O)O [glucagon1-21, glucagon-(1-21)-heneicosapeptide]",deaths,NMRI mice,No deaths occurred
"CC(C)C[C@H](NC(=O)[C@H](Cc1c[nH]c2ccccc12)NC(=O)[C@H](CCC(N)=O)NC(=O)[C@@H](NC(=O)[C@H](Cc1ccccc1)NC(=O)[C@H](CC(=O)O)NC(=O)[C@H](CCC(N)=O)NC(=O)[C@H](C)NC(=O)[C@H](CCCNC(=N)N)NC(=O)[C@H](CCCNC(=N)N)NC(=O)[C@H](CO)NC(=O)[C@H](CC(=O)O)NC(=O)[C@H](CC(C)C)NC(=O)[C@H](Cc1ccc(O)cc1)NC(=O)[C@H](CCCCN)NC(=O)[C@H](CO)NC(=O)[C@H](Cc1ccc(O)cc1)NC(=O)[C@H](CC(=O)O)NC(=O)[C@H](CO)NC(=O)[C@@H](NC(=O)[C@H](Cc1ccccc1)NC(=O)[C@@H](NC(=O)CNC(=O)[C@H](CCC(N)=O)NC(=O)[C@H](CO)NC(=O)[C@@H](N)Cc1c[nH]cn1)[C@@H](C)O)[C@@H](C)O)C(C)C)C(=O)O [glucagon1-26, glucagon-(1-26)-hexacosapeptide]",metabolic effects after administration in vivo,rats,No metabolic effects
same,effect on the activation of the adenylate cyclase (metabolic effect) compared with glucagon,adenylate cyclase,negligible
same,"inhibitory effect on the amplitude of the contractions, potency compared with glucagon",[1]; electrically stimulated guinea pig ileum in vitro,almost the same potency as glucagon
same,lipolytic effect (metabolic effect) compared with glucagon,rat free fat cells,negligible
glucagon,inhibition of contraction amplitude,"[1]; 10^-5 M, X±sd, N=3",83±4%
same,inhibition of contraction amplitude,[1]; 10^-6 M,50±3%
same,inhibition of contraction amplitude,[1]; 10^-7 M,27±3%
same,effect on gall flow,gall flow in rats,increase in gall flow
same,insulin release,[2],releases insulin
same,gall flow immediately after the administration,bile flow in rabbits; rabbits with catheters in the bile duct,decrease in gall flow
same,subsequent bile flow,"bile flow in rabbits; rabbits with catheters in the bile duct, after the initial decrease",increase in bile flow to quantities higher than before the administration
same,Amount of bile,"bile flow in rabbits; sampling period 45-60 minutes, one rex rabbit 2.0 kg",0.20 mL
same,Amount of bile,bile flow in rabbits; sampling period 60-75 minutes,0.25 mL
same,Amount of bile,bile flow in rabbits; sampling period 75-90 minutes,3.30 mL
same,Amount of bile,bile flow in rabbits; sampling period 90-105 minutes,2.80 mL
same,Amount of bile,bile flow in rabbits; sampling period 105-120 minutes,2.00 mL
same,spasmolytic effect,[3]; 200 μg i.v.,no detectable effect
same,spasmolytic effect,[3]; 400 μg,distinct effect
same,duration of inhibition of intestinal motility,[3]; [6],about ten
same,onset of inhibition of intestinal motility after administration,[3]; [6],one
same,relaxation of gall bladder strip,"[4]; 10^-6 M, strip contracted with 0.1 μg/ml cholecystochinin octapeptide",39%
same,ED50 (relaxation of gall bladder strip),[4]; strip contracted with 0.1 μg/ml cholecystochinin octapeptide,2700 nM
same,"relaxing effect on gall bladder preparation, relative potency",[4]; submaximally contracted rabbit gall bladder preparation in vitro,almost equipotent
same,effect on pentagastrin stimulated gastric acid secretion,[5],inhibit pentagastrin stimulated gastric acid secretion
